Results as given in patent US6054450A, “Hair-care cosmetic compositions having dandruff formation-suppressing effect” (Pacific Corporation, priority 1997, dated 2000).

Experiments:
[1] = cited from earlier work
[2] = cited from earlier work; for Acute Oral LD50: rats
[3] = Stability of iodopropynyl butylcarbamate to temperature and pH; conditions: 70~80° C. and pH 4~10
Pityrosporum ovlae = experiment: Antibacterial activity against Pityrosporum ovlae (general statement); type: cell-based
Solubility = type: physicochemical

SMILES	solubility in ethanol ([1]; ethanol) [ppm]	solubility in water at 25° C. ([1]; water, 25° C.)	solubility ([1]; water, ethanol and most common organic solvents such as ethylene glycol, diethyl ether and isopropanol)	Acute Oral LD50 [2] [mg/kg]	stability [3]	MIC (Pityrosporum ovlae)	antibacterial action (Pityrosporum ovlae)	solubility in alcohols or glycol derivatives (Solubility; alcohols or glycol derivatives)	solubility in ionic or non-ionic surfactants (Solubility; ionic or non-ionic surfactants)	solubility in water (Solubility; water)	safety and toxicity compared with zinc pyrithione ([2]; compared with zinc pyrithione)
[O-]n1ccccc1=S.[O-]n1ccccc1=S.[Zn+2] [zinc pyrithione, zinc salt of 1-hydroxy-2(1H) pyridinethione]	310	about 15 ppm	substantially insoluble	354	–	–	–	–	–	–	–
CCCCNC(=O)OCC#CI [iodopropynyl butylcarbamate]	–	–	–	1470	very stable	very low	very strong	high solubility	good solubility	low solubility	very advantageous over zinc pyrithione
